Test results reported in patent publication US10787444B2, “Compounds for the modulation of myc activity” (Syros Pharmaceuticals, Inc., priority 2015, dated 2020).
Structures can show the parent of a compound that is named as a salt. Where two headings read alike, the source gives them in different places.

Columns and labels:
[1] = molecular target: T1, c-Myc/Max/Ebox DNA (Homo sapiens, UniProt P01106); experiment: c-Myc/Max/Ebox DNA AlphaScreen Assay; assay type: binding; conditions: calculated IC50 class
T1 construct: his6 (cleaved yes)
T1 sequence (P01106 whole entry): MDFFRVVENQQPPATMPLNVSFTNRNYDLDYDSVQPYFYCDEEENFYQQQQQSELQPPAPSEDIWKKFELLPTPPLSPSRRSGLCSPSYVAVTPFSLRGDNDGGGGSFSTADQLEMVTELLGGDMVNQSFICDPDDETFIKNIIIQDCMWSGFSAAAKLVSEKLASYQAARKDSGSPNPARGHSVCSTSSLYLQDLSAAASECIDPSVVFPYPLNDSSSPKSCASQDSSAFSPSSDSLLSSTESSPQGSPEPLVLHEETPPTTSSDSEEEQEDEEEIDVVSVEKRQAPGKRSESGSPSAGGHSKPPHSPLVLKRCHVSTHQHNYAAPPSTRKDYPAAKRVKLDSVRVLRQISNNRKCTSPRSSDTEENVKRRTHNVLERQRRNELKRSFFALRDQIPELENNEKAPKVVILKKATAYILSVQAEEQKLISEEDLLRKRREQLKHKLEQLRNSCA
Outline: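 Compounds were preincubated with free c-Myc (20 nM), biotinylated single-Ebox DNA (10 nM) and Ni acceptor beads before his6-Max (5 nM) and streptavidin donor beads were added. Buffer was 50 mM HEPES pH 8.0, 150 mM NaCl, BSA, Tween20, glycogen and DTT, with DMSO ≤2%. After 2 h incubation, AlphaScreen signal was read at 680 nm excitation and 520–620 nm emission.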

[2] = tested on: human small lung cancer cell line H2171; experiment: Cell Viability Assay (ATPlite); assay type: cell-based; conditions: H2171 cells, three days, ATPlite, calculated IC50 class, read-out: H2171 Activity
Outline: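 H2171 cells were plated at 20,000 cells/mL and dosed immediately by pin transfer with a 10-point dose series in DMSO. After three days at 37° C, ATPlite luminescence served as the viability readout.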

[3] = Homo sapiens, NCI-H2171, 72 h, Table 2, compounds of FIG. 1
[4] = Homo sapiens, NCI-H2171, 72 h, Table 3, compounds of FIG. 2

Molecule | IC50 ([1]; Table 2, compounds of FIG. 1) | IC50 [2, 3] | IC50 ([2]; Table 2, compounds of FIG. 1) | IC50 ([1]; Table 3, compounds of FIG. 2) | IC50 [2, 4]
COCCNCCC(=O)Nc1sc2c(c1-c1nc3c(C#N)cccc3s1)CCNC2 [compound 568] | < 300 nM | < 300 nM | – | – | –
CC(C)NCCC(=O)Nc1sc2c(c1-c1nc3ccc(C4=CCNCC4)cc3s1)CCNC2 [compound 194] | < 300 nM | < 300 nM | – | – | –
COCCNCCC(=O)Nc1sc2c(c1-c1nc3cc4c(cc3s1)OCO4)CCNC2 [Compound 556, N-(3-([1,3]Dioxolo[4′,5′:4,5]benzo[1,2-d]thiazol-6-yl)-4,5,6,7-tetrahydrothieno[2,3-c]pyridin-2-yl)-3-((2-methoxyethyl)amino)propanamide] | < 300 nM | < 300 nM | – | – | –
CC(C)CNCCC(=O)Nc1sc2c(c1-c1nc3ccccc3s1)CCN(C(C)C)C2 [Compound 552, N-(3-(Benzo[d]thiazol-2-yl)-6-isopropyl-4,5,6,7-tetrahydrothieno[2,3-c]pyridin-2-yl)-3-(isobutylamino)propanamide] | < 300 nM | < 300 nM | – | – | –
3-(Azetidin-1-yl)-N-(3-(benzo[d]thiazol-2-yl)-6-isopropyl-4,5,6,7-tetrahydrothieno[2,3-c]pyridin-2-yl)propanamide [Compound 541] | 300 to 1000 nM | – | 1000 to 10000 nM | – | –
COCCNCCC(=O)Nc1sc2c(c1-c1nc3ccccc3s1)CC(C)NC2C (single isomer, unassigned) [Compound 509, N-(3-(Benzo[d]thiazol-2-yl)-5,7-dimethyl-4,5,6,7-tetrahydrothieno[2,3-c]pyridin-2-yl)-3-((2-methoxyethyl)amino)propanamide] | 1000 to 10000 nM | – | < 300 nM | – | –
COCCNCCC(=O)Nc1sc2c(c1-c1nc3cc(F)ccc3s1)CCN[C@@H]2C [Compound 557] | < 300 nM | < 300 nM | – | – | –
CC(=O)Nc1sc2c(c1-c1nc3ccccc3s1)C(F)CNC2 (stereo not drawn) [Compound 217, N-(3-(benzo[d]thiazol-2-yl)-4-fluoro-4,5,6,7-tetrahydrothieno[2,3-c]pyridin-2-yl) acetamide] | – | – | – | > 10000 nM | < 300 nM
CC(=O)Nc1sc2c(c1-c1nc3ccccc3s1)C[C@H](C)N[C@@H]2C [Compound 219, N-((5S,7R)-3-(benzo[d]thiazol-2-yl)-5,7-dimethyl-4,5,6,7-tetrahydrothieno[2,3-c]pyridin-2-yl)acetamide] | – | – | – | 1000 to 10000 nM | < 300 nM
COCCNCCC(=O)Nc1sc2c(c1-c1nc3ccccc3s1)CCNC2 [Compound 134, N-(3-(benzo[d]thiazol-2-yl)-4,5,6,7-tetrahydrothieno[2,3-c]pyridin-2-yl)-3-((2-methoxyethyl)amino)propanamide] | < 300 nM | < 300 nM | – | – | –
CN(C)CCC(=O)Nc1sc2c(c1-c1nc3ccccc3s1)CCNC2 [Compound 130, N-(3-(benzo[d]thiazol-2-yl)-4,5,6,7-tetrahydrothieno[2,3-c]pyridin-2-yl)-3-(dimethylamino)propanamide] | < 300 nM | < 300 nM | – | – | –
COCCNCCC(=O)Nc1sc2c(c1-c1nc3ccc(C4=CCNCC4)cc3s1)CCNC2 [compound 459] | < 300 nM | < 300 nM | – | – | –
COC(=O)c1ccc2sc(-c3c(NC(C)=O)sc4c3CCNC4)nc2c1 [Compound 229, Methyl 2-(2-acetamido-4,5,6,7-tetrahydrothieno[2,3-c]pyridin-3-yl)benzo[d]thiazole-5-carboxylate] | – | – | – | 300 to 1000 nM | < 300 nM
COCCNCCC(=O)Nc1sc2c(c1-c1nc3ccccc3s1)CC(C)NC2C (stereo not drawn) [Compound 507, N-(3-(Benzo[d]thiazol-2-yl)-5,7-dimethyl-4,5,6,7-tetrahydrothieno[2,3-c]pyridin-2-yl)-3-((2-methoxyethyl)amino)propanamide] | 300 to 1000 nM | – | < 300 nM | – | –

Now from value to molecule:

IC50 ([1]; Table 2, compounds of FIG. 1) | IC50 [2, 3] | IC50 ([2]; Table 2, compounds of FIG. 1) | IC50 ([1]; Table 3, compounds of FIG. 2) | IC50 [2, 4] | Molecule
< 300 nM | < 300 nM | – | – | – | CCC(C)NCCC(=O)Nc1sc2c(c1-c1nc3cc(C(F)(F)F)ccc3s1)CCN(C(C)C)C2 (stereo not drawn) [Compound 142, 3-(sec-butylamino)-N-(6-isopropyl-3-(5-(trifluromethyl)benzo[d]thiazol-2-yl)-4,5,6,7-tetrahydrothieno[2,3-c]pyridin-2-yl)propanamide]
< 300 nM | < 300 nM | – | – | – | COCCNCCC(=O)Nc1sc2c(c1-c1nc3ccc(-c4cccnc4)cc3s1)CC(C)NC2C (single isomer, unassigned) [Compound 519, N-(5,7-Dimethyl-3-(6-(pyridin-3-yl)benzo[d]thiazol-2-yl)-4,5,6,7-tetrahydrothieno[2,3-c]pyridin-2-yl)-3-((2-methoxyethyl)amino)propanamide]
< 300 nM | < 300 nM | – | – | – | COCCNCCC(=O)Nc1sc2c(c1-c1nc3cc(-c4cnc(N)nc4)ccc3s1)CCNC2 [compound 345]
< 300 nM | < 300 nM | – | – | – | CC[C@H](C)NCCC(=O)Nc1sc2c(c1-c1nc3cc(C(F)(F)F)ccc3s1)CC(C)NC2C (single isomer, unassigned) [Compound 584]
< 300 nM | < 300 nM | – | – | – | COCCNCCC(=O)Nc1sc2c(c1-c1nc3ccc(-c4ccncc4)cc3s1)CC(C)NC2C (single isomer, unassigned) [Compound 517, N-(5,7-Dimethyl-3-(6-(pyridin-4-yl)benzo[d]thiazol-2-yl)-4,5,6,7-tetrahydrothieno[2,3-c]pyridin-2-yl)-3-((2-methoxyethyl)amino)propanamide]
< 300 nM | < 300 nM | – | – | – | CCN(CC)c1ccc(-c2ccc3sc(-c4c(NC(=O)CCNCCOC)sc5c4CCNC5)nc3c2)cc1 [compound 365]
1000 to 10000 nM | – | 300 to 1000 nM | – | – | COCCNCCC(=O)Nc1sc2c(c1-c1nc3cc(-c4ccncc4)ccc3s1)CC(C)NC2C (single isomer, unassigned) [Compound 523, N-(5,7-dimethyl-3-(5-(pyridin-4-yl)benzo[d]thiazol-2-yl)-4,5,6,7-tetrahydrothieno[2,3-c]pyridin-2-yl)-3-((2-methoxyethyl)amino)propanamide]
300 to 1000 nM | – | < 300 nM | – | – | COCCNCCC(=O)Nc1sc2c(c1-c1nc3ccc(-c4cccnc4)cc3s1)CC(C)NC2C (single isomer, unassigned) [Compound 527, N-(5,7-Dimethyl-3-(6-(pyridin-3-yl)benzo[d]thiazol-2-yl)-4,5,6,7-tetrahydrothieno[2,3-c]pyridin-2-yl)-3-((2-methoxyethyl)amino)propanamide]
– | – | – | > 10000 nM | < 300 nM | CC(=O)Nc1sc2c(c1-c1nc3ccccc3s1)CCC(NCc1ccncc1)C2 (stereo not drawn) [Compound 226, N-(3-(benzo[d]thiazol-2-yl)-6-((pyridin-4-ylmethyl)amino)-4,5,6,7-tetrahydrobenzo[b]thiophen-2-yl)acetamide]
< 300 nM | < 300 nM | – | – | – | COCCNCCC(=O)Nc1sc2c(c1-c1nc3cc(-c4cccc(C(=O)N(C)C)c4)ccc3s1)CCNC2 [compound 394]
> 10000 nM | 300 to 1000 nM | – | – | – | CC[C@H](C)NCCC(=O)Nc1sc2c(c1-c1nc3ccccc3s1)CCN(C1CC1)C2 [Compound 596, (S)—N-(3-(benzo[d]thiazol-2-yl)-6-cyclopropyl-4,5,6,7-tetrahydrothieno[2,3-c]pyridin-2-yl)-3-(sec-butylamino)propanamide]
< 300 nM | < 300 nM | – | – | – | CC(C)NCCC(=O)Nc1sc2c(c1-c1nc3cc(-n4ccnc4)ccc3s1)CCNC2 [Compound 178, N-(3-(5-(1H-imidazol-1-yl)benzo[d]thiazol-2-yl)-4,5,6,7-tetrahydrothieno[2,3-c]pyridin-2-yl)-3-(isopropylamino)propanamide dihydrochloride]
300 to 1000 nM | < 300 nM | – | – | – | CC(C)NCCC(=O)Nc1sc2c(c1-c1nc3cc(C(=O)N(C)C)ccc3s1)CCNC2 [Compound 322, 2-(2-(3-(Isopropylamino)propanamido)-4,5,6,7-tetrahydrothieno[2,3-c]pyridin-3-yl)-N,N-dimethylbenzo[d]thiazole-5-carboxamide]
< 300 nM | < 300 nM | – | – | – | CC(C)NCCC(=O)Nc1sc2c(c1-c1nc3ccc(-c4cccnc4)cc3s1)CCNC2 [compound 193]
< 300 nM | < 300 nM | – | – | – | CC[C@H](C)NCCC(=O)Nc1sc2c(c1-c1nc3cc(F)ccc3s1)CCNC2 [Compound 156, (S)-3-(sec-butylamino)-N-(3-(5-fluorobenzo[d]thiazol-2-yl)-4,5,6,7-tetrahydrothieno[2,3-c]pyridin-2-yl)propanamide hydrochloride]
< 300 nM | < 300 nM | – | – | – | COCCNCCC(=O)Nc1sc2c(c1-c1nc3ccc(-c4cc(C)[nH]n4)cc3s1)CCNC2 [compound 355]
300 to 1000 nM | 300 to 1000 nM | – | – | – | CC(C)NCCC(=O)Nc1sc2c(c1-c1nc3ccccc3s1)CCN(C(C)C)C2 [Compound 132, N-(3-(benzo[d]thiazol-2-yl)-6-isopropyl-4,5,6,7-tetrahydrothieno[2,3-c]pyridin-2-yl)-3-(isopropylamino)propanamide]
< 300 nM | < 300 nM | – | – | – | CC[C@H](C)NCCC(=O)Nc1sc2c(c1-c1nc3cc(-c4ccncc4)ccc3s1)C[C@@H](C)NC2 [Compound 589, 3-(((S)-sec-butyl)amino)-N—((R)-5-methyl-3-(5(pyridin-4-yl)benzo[d]thiazol-2-yl)-4,5,6,7-tetrahydrothieno[2,3-c]pyridin-2-yl)propanamide]
< 300 nM | < 300 nM | – | – | – | COCCNCCC(=O)Nc1sc2c(c1-c1nc3cc(-n4cnc(C)c4)ccc3s1)CCNC2 [compound 180]
